# How the values were obtained:
# MDCK-II epithelium = test: Micro-fluidic Kidney Pump (MFKP) pump performance curve, MDCK-II epithelium; format: cell-based
# Excerpt: (§1) A micro-fluidic device to measure transepithelial fluid absorption activities of the kidney epithelium while allowing for cell imaging andvsimultaneous control of fluid pressure, shear stress (FSS), and media chemical composition is described herein (see FIG. 2A-2F). The device measures fluidic flux across the epithelium as a function of apical and basal pressures using a microcapillary (MC) connected to port 2 or 3 (FIG. 2C). The MC measures both the trans-epithelial fluid flux and the hydraulic pressure (FIG. 2C, 2F). […] Calibration experiments are performed to obtain capillary action contribution from the MC to the basal pressure and the static pressure profiles of each device for the shear flow condition considered.
# WTc cells = test: MFKP pump performance curve, wild type cortex (WTc) primary kidney cells; format: cell-based, human
# Excerpt: as §1
# (§2) Next, it was considered whether the device is useful for understanding fluidic pumping by primary human normal kidney and ADPKD cystic cells. […] The barrier function of the epithelia was again assessed using dye permeation assay (FIG. 15A-15I).
# (§3) Port 1 is closed. (4B) Schematic of the setup, which allows measurement of trans-epithelial fluid flux from the basal to apical chamber. (4C) Schematic representation of a cystic kidney derived from ADPKD patients. (4D) Schematic representation of a kidney derived from normal human patients. (4E) The MC is connected to port 3 in the MFKP. Port 1 is closed. (4F) This setup enables measurement of trans-epithelial fluid flux from apical to basal chamber.
# WTm cells = test: MFKP pump performance curve, wild type medulla (WTm) primary kidney cells; format: cell-based, human
# Excerpt: as §1, §2, §3
# ADPKD cystic cells = test: MFKP pump performance curve, ADPKD cystic cells; format: cell-based, human
# Excerpt: as §1, §2
# Port 1 is closed. (4B) Schematic of the setup, which allows measurement of trans-epithelial fluid flux from the basal to apical chamber. (4C) Schematic representation of a cystic kidney derived from ADPKD patients.
# cysts = conditions: mouse models of ADPKD; AVP treatment; reference [15]; cited from earlier work
# ADPKD kidney = conditions: reference [16]; cited from earlier work
# V2R = V2R (Homo sapiens, UniProt P30518); conditions: reference [18]; cited from earlier work
# Sequence of V2R (P30518 whole entry, species assumed): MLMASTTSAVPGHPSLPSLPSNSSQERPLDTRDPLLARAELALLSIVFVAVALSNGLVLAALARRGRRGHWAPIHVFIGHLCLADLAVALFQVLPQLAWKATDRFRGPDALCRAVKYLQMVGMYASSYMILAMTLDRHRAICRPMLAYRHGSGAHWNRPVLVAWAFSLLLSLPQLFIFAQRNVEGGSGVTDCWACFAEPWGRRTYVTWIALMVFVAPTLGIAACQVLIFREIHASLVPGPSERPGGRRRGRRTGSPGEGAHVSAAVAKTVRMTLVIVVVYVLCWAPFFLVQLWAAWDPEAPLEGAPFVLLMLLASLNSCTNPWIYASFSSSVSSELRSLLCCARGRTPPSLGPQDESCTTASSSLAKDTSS
# [1] = mature ADPKD epithelium, 1 nM TVP on basolateral side for 1 hour, vs control
compound,measurement,setting,value
"NC(=O)CC[C@@H]1NC(=O)[C@H](Cc2ccccc2)NC(=O)[C@H](Cc2ccc(O)cc2)NC(=O)[C@@H](N)CSSC[C@@H](C(=O)N2CCC[C@H]2C(=O)N[C@@H](CCCN=C(N)N)C(=O)NCC(N)=O)NC(=O)[C@H](CC(N)=O)NC1=O [AVP, arginine vasopressin]",pump performance curve (PPC),"MDCK-II epithelium; MDCK-II epithelium, chemical perturbation (addition of AVP)",changes substantially
same,J0 and ΔP*,WTc cells; basolateral treatment of AVP,variable response
same,J0 and ΔP*,WTm cells; basolateral treatment of AVP,variable response
same,stall pressure ΔP*,"ADPKD cystic cells; ADPKD cells, basolateral treatment of AVP",−300 Pa
same,basal-to-apical fluid pumping,"ADPKD cystic cells; ADPKD epithelium, basolateral treatment of AVP",massive surge
same,cyst growth,cysts,grow bigger
C[C@@H]1O[C@@H](O[C@H]2C[C@@H](O)[C@]3(CO)[C@H]4[C@H](O)C[C@]5(C)[C@@H](C6=CC(=O)OC6)CC[C@]5(O)[C@@H]4CC[C@]3(O)C2)[C@H](O)[C@H](O)[C@H]1O [Ouabain],equilibrium fluid flux (J0),WTc cells; after Ouabain induced inhibition of NKA (control 4.3),1.7 μL/min/cm^2
same,stall pressure ΔP*,WTc cells; after Ouabain induced inhibition of NKA (control 157 Pa),34 Pa
same,J0,WTm cells; overnight incubation with 274 μM Ouabain (control 4.3),1.0 μL/min/cm2
same,ΔP*,WTm cells; overnight incubation with 274 μM Ouabain (control 56 Pa),42 Pa
Cc1ccccc1C(=O)Nc1ccc(C(=O)N2CCCC(O)c3cc(Cl)ccc32)c(C)c1 (stereo not drawn) [Tolvaptan],J0 (fluid flux at zero pressure gradient),ADPKD cystic cells; [1],decreased
same,stall pressure ΔP*,ADPKD cystic cells; [1],decreased
same,total kidney volume,ADPKD kidney,decreased
same,cAMP levels,V2R,decrease
C[C@@H](N)[C@H]1CC[C@H](C(=O)Nc2ccncc2)CC1 [Y-27367],fluid flux,"MDCK-II epithelium; MDCK-II epithelium in MFKP, addition of Y-27367",did not influence fluid flux significantly
